Test results reported in ChEMBL document CHEMBL1201862, “PubChem BioAssay data set” (2004).
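Values below derive from 48-hour exposures of cells grown in 96-well plates, with endpoints linearly interpolated between the two concentrations bracketing the appropriate inhibition level. GI50: concentration for 50% inhibition of growth.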 Calls of active or inactive are those of the source. Cut-off read from the data, not from the text of the source: active = GI50 up to about 1.1 µM and inactive = higher. Square brackets hold non-standard residues; d marks the D form. Peptide text beside a SMILES is read from it. * marks the point of attachment. ξ: configuration not given here. Propanoyl(3-(4-MeO-Ph)) = COc1ccc(CCC(=O)*)cc1; Thr(3ξ) = CC(O)[C@H](N)C(=O)O; dNMeL = CN[C@H](CC(C)C)C(=O)O; ξLac = CC(O)C(=O)O

Tests used:
Assay in all cases: growth of human tumour cells (NCI), 48 h
T47D = system: T47D
MCF7 = system: MCF7
TK-10 = system: TK-10
NCI-H23 = system: NCI-H23
MDA-MB-231 = system: MDA-MB-231
K562 = system: K562
HL-60 = system: HL-60
CCRF-CEM = system: CCRF-CEM
SW-620 = system: SW-620
SR = system: SR
OVCAR-8 = system: OVCAR-8
HCC 2998 = system: HCC 2998
NCI/ADR-RES = system: NCI/ADR-RES
M14 = system: M14
786-0 = system: 786-0
SK-OV-3 = system: SK-OV-3
SNB-19 = system: SNB-19
NCI-H226 = system: NCI-H226
UACC-257 = system: UACC-257
DU-145 = system: DU-145

Row | SMILES | GI50 (T47D) | GI50 (MCF7) | GI50 (TK-10) | GI50 (NCI-H23) | GI50 (MDA-MB-231) | GI50 (K562) | GI50 (HL-60) | GI50 (CCRF-CEM) | GI50 (SW-620) | GI50 (SR) | GI50 (OVCAR-8) | GI50 (HCC 2998) | GI50 (NCI/ADR-RES) | GI50 (M14) | GI50 (786-0) | GI50 (SK-OV-3) | GI50 (SNB-19) | GI50 (NCI-H226) | GI50 (UACC-257) | GI50 (DU-145)
1 | CCCC(=O)Nc1ncnc2c1ncn2C1OC2COP(=O)(O)OC2C1OC(=O)CCC (stereo not given) | > 100 µM (inactive) | > 100 µM (inactive) | > 1000 µM (inactive) | > 100 µM (inactive) | 479 µM (inactive) | > 100 µM (inactive) | 180 µM (inactive) | 266 µM (inactive) | > 100 µM (inactive) | 493 µM (inactive) | > 100 µM (inactive) | > 100 µM (inactive) | > 100 µM (inactive) | > 100 µM (inactive) | > 100 µM (inactive) | > 100 µM (inactive) | > 100 µM (inactive) | > 100 µM (inactive) | > 100 µM (inactive) | > 100 µM (inactive)
2 | CC1(C)[C@@H]2C[C@H]1c1cnc(-c3ccccn3)cc1[C@H]2C(O)[C@@H]1c2cc(-c3ccccn3)ncc2[C@H]2C[C@@H]1C2(C)C (stereo not given in full) | 0.505 µM (active) | 0.0796 µM (active) | 2.14 µM (inactive) | 0.189 µM (active) | 0.338 µM (active) | 0.124 µM (active) | 0.0212 µM (active) | < 0.0222 µM (active) | 0.17 µM (active) | 0.0309 µM (active) | 0.124 µM (active) | 0.993 µM (active) | 0.101 µM (active) | 0.082 µM (active) | 0.0451 µM (active) | 0.0867 µM (active) | 0.301 µM (active) | < 0.0504 µM (active) | 0.396 µM (active) | 0.125 µM (active)
3 | CCn1c(=O)c2nc(SC)sc2n(-c2ccc(C)cc2)c1=O | > 100 µM (inactive) | > 100 µM (inactive) | > 100 µM (inactive) | > 100 µM (inactive) | > 100 µM (inactive) | > 100 µM (inactive) | > 100 µM (inactive) | > 100 µM (inactive) | > 100 µM (inactive) | > 100 µM (inactive) | > 100 µM (inactive) | > 100 µM (inactive) | > 100 µM (inactive) | 6.68 µM (inactive) | 0.401 µM (active) | > 100 µM (inactive) | > 100 µM (inactive) | > 100 µM (inactive) | > 100 µM (inactive) | > 100 µM (inactive)
4 | CC1N[B@@-](C)(c2ccc(C(F)(F)F)cc2)OC1c1ccccc1 (stereo not given in full) | > 100 µM (inactive) | 59.7 µM (inactive) | > 100 µM (inactive) | > 100 µM (inactive) | > 100 µM (inactive) | 66.2 µM (inactive) | 12.7 µM (inactive) | 42.6 µM (inactive) | > 100 µM (inactive) | 31.3 µM (inactive) | > 100 µM (inactive) | > 100 µM (inactive) | > 100 µM (inactive) | > 100 µM (inactive) | > 100 µM (inactive) | > 100 µM (inactive) | > 100 µM (inactive) | > 100 µM (inactive) | > 100 µM (inactive) | > 100 µM (inactive)
5 | COC(=O)[C@@H](NC(=O)[C@@H](CC(C)C)N(C)C(=O)[C@@H]1CCCN1C(=O)C(C)O)C(C)OC(=O)CCc1ccc(OC)cc1 (stereo not given in full) (H-[ξLac]P[dNMeL][Thr(3ξ)](Propanoyl(3-(4-MeO-Ph)))-OMe) | > 100 µM (inactive) | > 100 µM (inactive) | > 100 µM (inactive) | > 100 µM (inactive) | > 100 µM (inactive) | > 100 µM (inactive) | > 100 µM (inactive) | > 100 µM (inactive) | > 100 µM (inactive) | > 100 µM (inactive) | > 100 µM (inactive) | > 100 µM (inactive) | > 100 µM (inactive) | > 100 µM (inactive) | > 100 µM (inactive) | > 100 µM (inactive) | > 100 µM (inactive) | > 100 µM (inactive) | > 100 µM (inactive) | > 100 µM (inactive)
